The data set deals with RGC-5 cells. The data set is described as follows: Cytoprotective action under OGD stress (dead cell rate, nuclear staining). Type of data set: cell-based. The conditions noted are these: no OGD stress. As to the method: The RGC-5 cell line is a cell line from rat retinal ganglion cells and used for in vitro tests for cell damage evaluation. The RGC-5 cell line can be cultured in accordance with the method disclosed in NAKAJIMA Y. et al., Zeaxanthin, a Retinal Carotenoid, Protects Retinal Cells against Oxidative Stress, Current Eye Research, 2009, Vol. 34, pp. 311-318.
Here, the expression OGD stress refers to a state in which the supply of oxygen and glucose is restricted.
RGC-5 cells were added at a concentration of 1×10^3 cells/well to a DMEM medium containing glucose […] that was concentrated at 4.5 times the general concentration and fetal bovine serum (FBS: 10%) of Oseanian origin that was concentrated at 10 times the general concentration, followed by culture for 24 hours. […]
Then, the mixture was washed twice with FBS-free base medium, followed by culture in DMEM medium containing high-concentration glucose […] and general-concentration FBS (1%) for 18 hours. The dead cell rate and the state of reactive oxygen species (ROS) generation were determined via nuclear staining. […] Meanwhile, the state of reactive oxygen species (ROS) generation was determined in accordance with the method disclosed in NAKAJIMA Y. et al., Zeaxanthin, a Retinal Carotenoid, Protects Retinal Cells against Oxidative Stress, Current Eye Research, 2009, Vol. 34, pp. 311-318. […]

Turning to `CC1=NN(c2ccccc2)C(=O)C1` [Edaravone], the “cell death in the absence of OGD stress” value is “did not cause cell death”.

For the origin of these results see patent US20170007554A1, “MEDICINE FOR PREVENTING ISCHEMIC DISEASES” (JX NIPPON OIL & ENERGY CORPORATION, priority 2014, published 2017).
